From patent US11008313B2, “Substituted 1-methyl-1,2,3,4-tetrahydroisoquinoline molecules as PCSK9 allosteric binders” (Merck Sharp & Dohme Corp., priority 2016, dated 2021)

Assays:
PCSK9 [1] = target: T1, PCSK9 (Homo sapiens, UniProt Q8NBP7); assay: Fluorescence polarization competition binding assay (probe: compound of Example 57); conditions: 2 μM PCSK9, 50 nM compound of Example 57 as probe, overnight incubation; read-out: FP IC
Description: Relative compound affinities were determined using a competition binding assay with a fluorescence polarization format. Solution (49 μL) containing 2 μM PCSK9 and 50 nM compound of Example 57 in 20 mM HEPES (pH 7.5)/150 mM NaCl/1 mM CaCl2/0.005% P-20 was dispensed to wells of a 384-well black non-binding microplate before the addition of 1 μL of test compound or DMSO. After mixing, the plate was centrifuged and sealed for overnight incubation in the dark. The anisotropy signal was read using a fluorescence polarization protocol on a Perkin-Elmer Envision plate reader. The % inhibition was determined relative to the window defined by the DMSO control wells and wells containing 50 nM probe in the absence of PCSK9.

PCSK9 [2] = target: T1, PCSK9; assay: Differential scanning calorimetry (DSC) assay, direct binding / thermal stabilization of PCSK9; conditions: Tm(with compound)−Tm(no compound); 2 μM PCSK9, 300 μM test compound
Description: Differential scanning calorimetry (DSC) was used as a biophysical method to confirm direct binding to PCSK9. A solution containing 2 μM PCSK9 with or without 300 μM test compound in 25 mM HEPES (pH 7.5)/150 mM NaCl/1 mM CaCl2/3.75% DMSO was transferred to the sample cell of the DSC instrument, while buffer alone was placed in the reference cell. Both cells were heated at a constant rate (200° C./hr) from 20-80° C. while recording the excess heat capacity of the sample cell relative to the reference cell. Each thermogram was analyzed to provide the melting temperature (Tm) of the protein.
The higher the temperature shift generally, the higher the affinity.

T1 sequence (Q8NBP7 153-692): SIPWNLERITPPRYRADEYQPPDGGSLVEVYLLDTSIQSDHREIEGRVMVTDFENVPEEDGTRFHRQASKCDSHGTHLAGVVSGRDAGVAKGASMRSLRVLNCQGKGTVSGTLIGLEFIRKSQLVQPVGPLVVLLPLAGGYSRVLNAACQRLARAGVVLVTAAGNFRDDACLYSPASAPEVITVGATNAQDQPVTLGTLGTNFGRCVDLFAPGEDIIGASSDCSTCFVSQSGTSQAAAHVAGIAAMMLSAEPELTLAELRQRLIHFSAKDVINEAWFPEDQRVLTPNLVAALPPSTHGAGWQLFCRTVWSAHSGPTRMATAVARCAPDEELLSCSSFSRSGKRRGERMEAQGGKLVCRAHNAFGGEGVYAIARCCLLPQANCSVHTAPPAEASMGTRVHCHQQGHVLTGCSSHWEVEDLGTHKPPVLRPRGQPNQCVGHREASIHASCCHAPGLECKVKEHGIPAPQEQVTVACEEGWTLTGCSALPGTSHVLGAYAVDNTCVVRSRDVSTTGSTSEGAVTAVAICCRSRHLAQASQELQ

C[C@]1(CC(=O)Nc2nccs2)NCCc2cc(OCC3CCCCO3)c(Oc3cccc(F)c3)cc21 (single isomer, unassigned) [Example 81, 2-((1R)-7-(3-fluorophenoxy)-1-methyl-6-(((S or R)-tetrahydro-2H-pyran-2-yl)methoxy)-1,2,3,4-tetrahydroisoquinolin-1-yl)-N-(thiazol-2-yl)acetamide]
IC50 (PCSK9 [1]): 550 nM
DSC ΔTm (PCSK9 [2]): 6.585 °C

C[C@]1(CC(=O)Nc2cccnn2)NCCc2cc(OCC3CCCCO3)c(Oc3ccc(-c4ccc(C(=O)O)cc4)c(F)c3)cc21 (stereo partly drawn) [Example 91, 2′-fluoro-4′-(((1R)-1-methyl-1-(2-oxo-2-(pyridazin-3-ylamino)ethyl)-6-((tetrahydro-2H-pyran-2-yl)methoxy)-1,2,3,4-tetrahydroisoquinolin-7-yl)oxy)-[1,1′-biphenyl]-4-carboxylic acid]
IC50 (PCSK9 [1]): 860 nM
ΔTm at 300 µM (PCSK9 [2]): 7.19 °C

C[C@]1(CC(=O)Nc2nccs2)NCCc2cc(OCCn3cc(C(O)CN)nn3)c(Oc3ccc(C(=O)O)c(F)c3)cc21 (stereo partly drawn) [Example 55, 4-(((1R)-6-(2-(4-(2-amino-1-hydroxyethyl)-1H-1,2,3-triazol-1-yl)ethoxy)-1-methyl-1-(2-oxo-2-(thiazol-2-ylamino)ethyl)-1,2,3,4-tetrahydroisoquinolin-7-yl)oxy)-2-fluorobenzoic acid]
IC50 (PCSK9 [1]): 878 nM
ΔTm at 300 µM (PCSK9 [2]): 5.82 °C

Cc1noc(COc2cc3c(cc2Oc2ccc(-c4ccc(C(=O)O)cc4)c(F)c2)[C@@](C)(CC(=O)Nc2nccs2)NCC3)n1 [Example 24, (R)-2′-fluoro-4′-((1-methyl-6-((3-methyl-1,2,4-oxadiazol-5-yl)methoxy)-1-(2-oxo-2-(thiazol-2-ylamino)ethyl)-1,2,3,4-tetrahydroisoquinolin-7-yl)oxy)-[1,1′-biphenyl]-4-carboxylic acid]
IC50 (PCSK9 [1]): 261 nM
ΔTm at 300 µM (PCSK9 [2]): 7.2 °C

COc1cc2c(cc1Oc1ccc(-c3ccc(CC(=O)O)cc3)c(F)c1)[C@@](C)(CC(=O)Nc1nccs1)NCC2 [Example 31, (R)-2-(2′-fluoro-4′-((6-methoxy-1-methyl-1-(2-oxo-2-(thiazol-2-ylamino)ethyl)-1,2,3,4-tetrahydroisoquinolin-7-yl)oxy)-[1,1′-biphenyl]-4-yl)acetic acid]
IC50 (PCSK9 [1]): 522 nM
ΔTm at 300 µM (PCSK9 [2]): 5.84 °C

Cc1ncsc1-c1ccc(CNC(=O)[C@@H]2C[C@@H](O)CN2C(=O)[C@@H](NC(=O)COCC(=O)NCCOCCOc2cc3c(cc2Oc2ccc(-c4ccc(C(=O)O)cc4)c(F)c2)[C@@](C)(CC(=O)Nc2nccs2)NCC3)C(C)(C)C)cc1 [Example 105, 2′-fluoro-4′-(((R)-6-(((S)-13-((2S,4R)-4-hydroxy-2-((4-(4-methylthiazol-5-yl)benzyl)carbamoyl)pyrrolidine-1-carbonyl)-14,14-dimethyl-7,11-dioxo-3,9-dioxa-6,12-diazapentadecyl)oxy)-1-methyl-1-(2-oxo-2-(thiazol-2-ylamino)ethyl)-1,2,3,4-tetrahydroisoquinolin-7-yl)oxy)-[1,1′-biphenyl]-4-carboxylic acid]
IC50 (PCSK9 [1]): 225 nM

C[C@]1(CC(=O)Nc2nccs2)NCCc2cc(OCC3CCCCO3)c(Oc3ccc(C(=O)O)c(F)c3)cc21 (stereo partly drawn) [Example 66, 2-fluoro-4-(((1R)-1-methyl-1-(2-oxo-2-(thiazol-2-ylamino)ethyl)-6-((tetrahydro-2H-pyran-2-yl)methoxy)-1,2,3,4-tetrahydroisoquinolin-7-yl)oxy)benzoic acid]
IC50 (PCSK9 [1]): 395 nM
DSC ΔTm (PCSK9 [2]): 9.14 °C

COC(=O)c1cc(-c2cc3c(cc2OC)CCN[C@]3(C)CC(=O)Nc2nccs2)ccc1F [Example 109, methyl (R)-2-fluoro-5-(6-methoxy-1-methyl-1-(2-oxo-2-(thiazol-2-ylamino)ethyl)-1,2,3,4-tetrahydroisoquinolin-7-yl)benzoate]
IC50 (PCSK9 [1]): 664 nM
ΔTm at 300 µM (PCSK9 [2]): 6.02 °C

COC(=O)c1cc(-c2cc3c(cc2OCC2CCCCO2)CCNC3(C)CC(=O)Nc2nccs2)ccc1F (stereo not drawn) [Example 111, methyl 2-fluoro-5-(1-methyl-1-(2-oxo-2-(thiazol-2-ylamino)ethyl)-6-((tetrahydro-2H-pyran-2-yl)methoxy)-1,2,3,4-tetrahydroisoquinolin-7-yl)benzoate]
IC50 (PCSK9 [1]): 1.55 nM
ΔTm at 300 µM (PCSK9 [2]): 6.27 °C

C[C@]1(CC(=O)Nc2nccs2)NCCc2cc(OCC3CCCCO3)c(Oc3ccc(-c4ccc(C(=O)O)cc4)c(F)c3)cc21 (stereo partly drawn) [Example 23, 2′-fluoro-4′-(((1R)-1-methyl-1-(2-oxo-2-(thiazol-2-ylamino)ethyl)-6-((tetrahydro-2H-pyran-2-yl)methoxy)-1,2,3,4-tetrahydroisoquinolin-7-yl)oxy)-[1,1′-biphenyl]-4-carboxylic acid]
IC50 (PCSK9 [1]): 228 nM
ΔTm at 300 µM (PCSK9 [2]): 8.71 °C

COc1cc2c(cc1Oc1ccc(-c3ccc(C(=O)O)c(F)c3)c(F)c1)[C@@](C)(CC(=O)Nc1nccs1)NCC2 [Example 27, (R)-2′,3-difluoro-4′-((6-methoxy-1-methyl-1-(2-oxo-2-(thiazol-2-ylamino)ethyl)-1,2,3,4-tetrahydroisoquinolin-7-yl)oxy)-[1,1′-biphenyl]-4-carboxylic acid]
IC50 (PCSK9 [1]): 386 nM
ΔTm at 300 µM (PCSK9 [2]): 7.11 °C

COc1cc2c(cc1Oc1ccnc(F)c1)[C@@](C)(CC(=O)Nc1nccs1)NCC2 [Example 7, (R)-2-(7-((2-fluoropyridin-4-yl)oxy)-6-methoxy-1-methyl-1,2,3,4-tetrahydroisoquinolin-1-yl)-N-(thiazol-2-yl)acetamide]
IC50 (PCSK9 [1]): 652 nM
ΔTm at 300 µM (PCSK9 [2]): 5.59 °C

COc1cc2c(cc1Oc1ccc3cnccc3c1)[C@@](C)(CC(=O)Nc1nccs1)NCC2 [Example 6, (R)-2-(7-(isoquinolin-6-yloxy)-6-methoxy-1-methyl-1,2,3,4-tetrahydroisoquinolin-1-yl)-N-(thiazol-2-yl)acetamide]
IC50 (PCSK9 [1]): 648 nM
ΔTm at 300 µM (PCSK9 [2]): 5.78 °C

C[C@]1(CC(=O)Nc2nccs2)NCCc2cc(OCC3CCCO3)c(Oc3cccc(F)c3)cc21 (stereo partly drawn) [Example 82, 2-((1R)-7-(3-fluorophenoxy)-1-methyl-6-((tetrahydrofuran-2-yl)methoxy)-1,2,3,4-tetrahydroisoquinolin-1-yl)-N-(thiazol-2-yl)acetamide]
IC50 (PCSK9 [1]): 721 nM
ΔTm at 300 µM (PCSK9 [2]): 7.47 °C

CC1=CC(C)=[N+]2C1=Cc1ccc(CCC(=O)NCCOCCOc3cc4c(cc3Oc3ccc(C(=O)O)c(F)c3)[C@@](C)(CC(=O)Nc3nccs3)NCC4)n1[B-]2(F)F [Example 57]
DSC ΔTm (PCSK9 [2]): 6.15 °C

COc1cc2c(cc1-c1ccc(F)c(C(=O)O)c1)[C@@](C)(CC(=O)Nc1nccs1)NCC2 [Example 112, (R)-2-fluoro-5-(6-methoxy-1-methyl-1-(2-oxo-2-(thiazol-2-ylamino)ethyl)-1,2,3,4-tetrahydroisoquinolin-7-yl)benzoic acid]
ΔTm at 300 µM (PCSK9 [2]): 6.8 °C

COC(=O)c1ccc(Oc2cc3c(cc2OCCOCCNC(=O)CCC2=[N+]4C(=Cc5c(C)cc(C)n5[B-]4(F)F)C=C2)CCN[C@]3(C)CC(=O)Nc2nccs2)cc1F [Example 61, methyl (R)-4-((6-(2-(2-(3-(5,5-difluoro-7,9-dimethyl-5H-4l4,5l4-dipyrrolo[1,2-c:2′,1′-f][1,3,2]diazaborinin-3-yl)propanamido)ethoxy)ethoxy)-1-methyl-1-(2-oxo-2-(thiazol-2-ylamino)ethyl)-1,2,3,4-tetrahydroisoquinolin-7-yl)oxy)-2-fluorobenzoate]
ΔTm at 300 µM (PCSK9 [2]): 2.87 °C

C[C@]1(CC(=O)Nc2nccs2)NCCc2cc(OCCOCCNC(=O)CCCC[C@@H]3SC[C@@H]4NC(=O)N[C@@H]43)c(Oc3ccc(C(=O)O)cc3)cc21 [Example 60, 4-(((R)-1-methyl-1-(2-oxo-2-(thiazol-2-ylamino)ethyl)-6-(2-(2-(5-((3aS,4S,6aR)-2-oxohexahydro-1H-thieno[3,4-d]imidazol-4-yl)pentanamido)ethoxy)ethoxy)-1,2,3,4-tetrahydroisoquinolin-7-yl)oxy)benzoic acid]
ΔTm at 300 µM (PCSK9 [2]): 6.42 °C

C[C@]1(CC(=O)Nc2nccs2)NCCc2cc(OCCOCCOCCNC(=O)CCCC[C@@H]3SC[C@@H]4NC(=O)N[C@@H]43)c(Oc3ccc(C(=O)O)cc3)cc21 [Example 58, 4-(((R)-1-methyl-1-(2-oxo-2-(thiazol-2-ylamino)ethyl)-6-(2-(2-(2-(5-((3aS,4S,6aR)-2-oxohexahydro-1H-thieno[3,4-d]imidazol-4-yl)pentanamido)ethoxy)ethoxy)ethoxy)-1,2,3,4-tetrahydroisoquinolin-7-yl)oxy)benzoic acid]
ΔTm at 300 µM (PCSK9 [2]): 5.88 °C

Cc1cc(C)n2c1C=C1C=CC(CCC(=O)NCCOCCOc3cc4c(cc3Oc3ccc(C(=O)O)cc3)[C@@](C)(CC(=O)Nc3nccs3)NCC4)=[N+]1[B-]2(F)F [Example 59, (R)-4-((6-(2-(2-(3-(5,5-difluoro-7,9-dimethyl-5H-4l4,5l4-dipyrrolo[1,2-c:2′,1′-f][1,3,2]diazaborinin-3-yl)propanamido)ethoxy)ethoxy)-1-methyl-1-(2-oxo-2-(thiazol-2-ylamino)ethyl)-1,2,3,4-tetrahydroisoquinolin-7-yl)oxy)benzoic acid]
ΔTm at 300 µM (PCSK9 [2]): 5.15 °C
